One test has as its system MRSA (ATCC 33592). Kind of test: MIC determination and sensitization fold on MRSA. It is filed as cell-based, methicillin-resistant Staphylococcus aureus. Conditions: MRSA; for Sensitization fold: rifampicin.
The next test concerns E. coli (ATCC 25922). Nature of the test: MIC determination, sensitization fold and FIC index on E. coli. It is filed as cell-based. As to conditions: for MIC: Escherichia coli. The method in brief:
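E. coli in cation-adjusted Mueller Hinton II, 5×10^5 CFU/ml, 24 h at 37 °C shaking; rifampicin two-fold serial dilutions with or without fixed sensitizer (10 μM).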

Test [1] relates to E. coli. Nature of the test: Lysozyme assay (outer membrane disruption). It is filed as cell-based. As to conditions: for bacterial lysis by lysozyme in the presence of sensitizer: 50 μg/ml lysozyme, 10 min; for bacterial lysis by sensitizer itself: absence of lysozyme. How it is done: Lysozyme assay to evaluate the disruption of Gram-negative bacteria out membrane by bacterial sensitizers. Lysozyme assay was performed based on literature reported method. E. coli was cultured in Mueller Hinton II cation-adjusted broth for overnight, centrifuged at 3000 g for 10 min, washed with HEPES buffer (pH=7.2) and then centrifuged again to obtain bacteria pallet. The pallet was then gently resuspended in HEPES buffer with 5 mM NaCN to obtain an E. coli suspension with OD600 between 0.8˜1.0. On a 96-well plate, each well was supplied with 100 μl lysozyme solution (100 μg/ml) containing 50 or 100 μg/ml bacterial sensitizers in HEPES buffer. To each well was added 100 μl E. coli suspension. The final concentration of lysozyme was 50 μg/ml. The plate was incubated at room temperature for 10 min and the OD600 was recorded. E. coli was also incubated with bacterial sensitizers in the absence of lysozyme to test if bacterial sensitizers would directly induce bacterial lysis. E. coli that was incubated with lysozyme alone or E. coli without any treatment were also used as negative control.

Test [2] concerns mcr-1 over-expressing E. coli strains. Nature of the test: microbe, parasite or virus in culture. It is filed as cell-based.
The subject of test [3] is NDM-1 expressing E. coli strain. Nature of the test: microbe, parasite or virus in culture. It is filed as cell-based. As to conditions: Escherichia coli; NDM-1 expressing E. coli; read-out: MIC of MD-124.
A further test deals with K. pneumoniae (43816). Kind of test: MIC, sensitization fold and FIC index on K. pneumoniae. It is filed as cell-based. Conditions: Klebsiella pneumoniae; K. pneumoniae; read-out: MIC of MD-124.
The test system of test [4] is E. coli. Nature of the test: Ex vivo skin burn infection model, wild-type E. coli. Conditions: human skin burn, hypromellose gel, 24 hours; 4‰ (w/w) novobiocin, 1.5‰ MD-124. The method, then:
To achieve topical application, compounds were formulated as hypromellose gel. […] After that, skin was loaded with hypromellose gel with different antibiotics and cultured at 37° C. for 24 hours. After 24 hours incubation, the skin sample was homogenized and the supernatants were serially diluted and plated on agar plates, from which bacterial counts on the skin was calculated. […] 1‰ polymyxin B hypromellose gel was used as positive control.

Setting [5] is: 10 μM compound, rifampicin as the antibiotic (Table 6).
[6] abbreviates: E. coli, rifampicin, compound at 10 μM.

“Also recorded” adds a separate entry of the source. Where a name gives a salt, the structure may show the parent alone. Read-outs that look alike come from different tables or passages of the source. Marks after values point to notes of the source that are not given here.

Consider `Cc1cc(COc2ccc(C(=N)N)cc2)cc(COc2ccc(C(=N)N)cc2)c1` [MD-100, 4,4′-(((5-methyl-1,3-phenylene)bis(methylene))bis(oxy))dibenzimidamide dihydrochloride], for which the Sensitization fold in the test on MRSA (ATCC 33592) (compound at 6 μM) is 32-fold at 6 μM; with E. coli (ATCC 25922) (setting [5]) it was 8 fold; in the test on E. coli (ATCC 25922) (E. coli, rifampicin, 10 μg/ml bacterial sensitizer), 32^a fold; in the test with E. coli (ATCC 25922) (setting [6]) it was 8-fold at 10 μM; in the test on E. coli (ATCC 25922) (E. coli, rifampicin, compound at 25 μM) it was 32-fold at 25 μM; with E. coli (ATCC 25922) (wild-type E. coli towards erythromycin, 10 μg/ml MD-100), 32 fold. For the same compound, in the test with E. coli (ATCC 25922) (ATCC25922, 24 h), the MIC was 100 µM. Besides, in the test with E. coli [1] (50 μg/ml sensitizer), the “bacterial lysis by lysozyme in the presence of sensitizer” value is given as “quick bacterial lysis”. For the same compound, the “bacterial lysis by sensitizer itself” value in the test with E. coli [1] is listed as “did not lead to bacterial lysis”.

On to `N=C(N)c1ccc(COc2cc(OCc3ccc(C(=N)N)cc3)cc(C(F)(F)F)c2)cc1` [MD-124, 4,4′-(((5-(trifluoromethyl)-1,3-phenylene)bis(oxy))bis(methylene)) dibenzimidamide dihydrochloride], for which the Sensitization fold was 32-fold at 5 μM with MRSA (ATCC 33592) (compound at 5 μM); 512 fold with E. coli (ATCC 25922) (setting [5]); 512 fold in the test on E. coli (ATCC 25922) (E. coli, rifampicin, 5 μg/ml bacterial sensitizer); 512-fold at 10 μM with E. coli (ATCC 25922) (setting [6]); 16 fold in the test with E. coli (ATCC 25922) (wild type E. coli towards rifampin, 3 μg/ml MD-124); 256 fold in the test with E. coli (ATCC 25922) (wild-type E. coli towards clarithromycin, 5 μg/ml sensitizer). In addition, the MIC worked out at 10 µM with MRSA (ATCC 33592) (Staphylococcus aureus, 24 h, compound alone, read-out: MIC); 12.5 µg/mL in test [2] (Escherichia coli, mcr-1 over-expression E. coli, read-out: MIC of MD-124); 50 µg/mL in test [3]; 25 µg/mL in the test with K. pneumoniae (43816); 100 µM with E. coli (ATCC 25922) (ATCC25922, 24 h, E. coli, compound alone, read-out: MIC); 50 µg/mL with E. coli (ATCC 25922) (ATCC25922, E. coli, read-out: MIC of MD-124 itself). Further, the results for the “MIC of Rif with 3 μg/ml MD-124” value in test [2] (strain mcr-1 A) and in test [2] (strain mcr-1 B) were 0.32 and 1.25, respectively. The “Sensitization fold with 3 μg/ml MD-124” value in test [2] (strain mcr-1 A, rifampicin, dihydrochloride) amounted to 16 fold; in test [2] (strain mcr-1 B, rifampicin), 4 fold. In addition, the “MIC of Rif with 5 μg/ml MD-124” value in test [2] (strain mcr-1 B) is reported as 0.16. Also, in test [2] (strain mcr-1 B, rifampicin), the “Sensitization fold with 5 μg/ml MD-124” value was determined as 32 fold. In the test with E. coli (ATCC 25922) (E. coli toward rifampicin, ~10 μg/ml MD-124), the “Sensitization fold (checkerboard assay)” value is recorded as “over 16,000 fold”. Further, in the test on E. coli (ATCC 25922) (E. coli, 5 μg/ml compound alone, no antibiotic, dihydrochloride), the “effect on bacterial growth (OD600 at different time points)” value is given as “no bacterial the growth inhibition effect; also recorded: no effect on bacterial growth”. Moreover, in the test on E. coli [1] (25 μg/ml sensitizer), the “bacterial lysis by lysozyme in the presence of sensitizer” value is on record as “quick bacterial lysis”. The “bacterial lysis by sensitizer itself” value with E. coli [1] was “did not lead to bacterial lysis”. Also, the “E. coli growth inhibition / bacterial load vs vehicle group” value in the test on E. coli [4] is on record as “neither 4‰ (w/w) novobiocin nor 1.5‰ MD-124 themselves achieved significant E. coli growth inhibition”.

These data come from patent publication US20230105108A1, “COMPOUNDS FOR THE TREATMENT OF BACTERIAL INFECTIONS AND POTENTIATION OF ANTIBIOTICS” (GEORGIA STATE UNIVERSITY RESEARCH FOUNDATION, INC., priority 2019, published 2023).
